Test results reported in patent publication US11833159B2, “Non-hormonal steroid modulators of NF-kB for treatment of disease” (ReveraGen BioPharma, Inc., priority 2008, dated 2023).

How the values were obtained:
[1] = In vivo mdx mouse model of dystrophy: body weight and muscle mass; conditions: 5 mg/kg/day per oral in feed, at 33.8 weeks age, P<0.05
Procedure: (§1) Separate groups (n=12-14) of mdx mice were treated with prednisolone (5 mg/kg/day; per oral in feed), Example 1 (20 and 40 mg/kg/day; per oral in feed) and Example 2 (20 and 40 mg/kg/day; per oral in feed) for 3 months. All mice underwent 30 min biweekly treadmill exercise during the treatment duration to unmask the mild disease phenotype of mdx mouse model.

[2] = tested on: mdx mice; assay: mdx mouse model: in vitro force contractions of EDL muscle; type: in vivo; conditions: 5 mg/kg/day per oral in feed
Procedure: as §1
The distal tendon of the extensor digitorum longus (EDL) muscle was tied securely to the lever arm of a servomotor/force transducer (model 305B, Aurora Scientific, Richmond Hill, ON, Canada) and the proximal tendon to a tissue clamp. Muscles were stimulated between two platinum electrodes. […] The muscle length was then measured with calipers and after removal of the muscle from the bath the mass of the muscle was determined. For each muscle, the optimum fiber length (Lf) was calculated by multiplying Lo by a previously determined Lf/Lo ratio of 0.45. Total muscle fiber cross-sectional area was determined by dividing the wet mass by the product of Lf and the density of mammalian skeletal muscle (1.06 mg/mm^3). Maximum isometric specific force (sPo) was determined by dividing Po by the total muscle fiber cross-sectional area.

[3] = tested on: mdx mice; assay: mdx mouse model: histological evaluation (H&E) of gastrocnemius muscle; type: in vivo; conditions: 3 months per oral in feed, Examples 20 and 40 mg/kg/day; for Degeneration of skeletal muscle (H&E histology) / Regeneration / regenerating muscle fibers (H&E histology): prednisolone 5 mg/kg/day; for Inflammation of skeletal muscle (H&E histology): in comparison to untreated and prednisolone treated mdx mice
Procedure: as §1
Hematoxylin and Eosin staining of gastrocnemius muscle of untreated mdx mice show significant degeneration and inflammation.

Compound	Body weight versus untreated mice [1]	Specific force of EDL muscle, difference to untreated group [2]	Degeneration of skeletal muscle (H&E histology) [3]	Regeneration / regenerating muscle fibers (H&E histology) [3]	Inflammation of skeletal muscle (H&E histology) [3]
C[C@]12C=CC(=O)C=C1CC[C@@H]1[C@@H]2[C@@H](O)C[C@@]2(C)[C@H]1CC[C@]2(O)C(=O)CO [prednisolone, reference compound]	significantly lower body weight	no statistically significant (P<0.05) difference	appeared to increase degeneration	decrease in regeneration	–
C[C@]12CCC(=O)C=C1CCC1C2=CC[C@@]2(C)C1CC[C@]2(O)C(=O)CO (stereo partly drawn) [Example 1, (10S,13S,17R)-17-hydroxy-17-(2-hydroxyacetyl)-10,13-dimethyl-6,7,8,10,12,13,14,15,16,17-decahydro-1H-cyclopenta[a]phenanthren-3(2H)-one]	–	–	significant decrease	increase in regenerating muscle fibers	significant decrease
C[C@]12C=CC(=O)C=C1CCC1C2=CC[C@@]2(C)C1CC[C@]2(O)C(=O)CO (stereo partly drawn) [Example 2, (10S,13S,17R)-17-hydroxy-17-(2-hydroxyacetyl)-10,13-dimethyl-6,7,8,10,12,13,14,15,16,17-decahydro-3H-cyclopenta[a]phenanthren-3-one]	–	–	significant decrease	increase in regenerating muscle fibers	significant decrease
